Laboratory results taken from US20110045101A1, “FUNGICIDAL SUBSTITUTED AZOLES” (E.I. Du Pont De Nemours and Company, priority 2009, published 2011).
Marks after values point to notes of the source that are not given here.

Assays:
Type in all cases: in vivo
Conditions in all cases: 100 = 100% disease control, 0 = no control
[1] = tested on: Septoria nodorum; experiment: Test F: wheat glume blotch on wheat seedlings, sprayed the day before inoculation, visual disease rating
Method in brief: (§1)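 Compounds were dissolved in acetone (3% of final volume), then suspended in 50/50 acetone/purified water with 250 ppm Trem® 014 surfactant. Suspensions at 200 ppm (some at 40 ppm) were sprayed to run-off, 200 ppm being equivalent to 500 g/ha.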

[2] = tested on: Puccinia recondita f. sp. tritici; experiment: Test I: wheat leaf rust on wheat seedlings, sprayed the day before inoculation, visual disease rating
Method in brief: as §1

[3] = tested on: Septoria tritici; experiment: Test G: wheat leaf blotch on wheat seedlings, sprayed the day before inoculation, visual disease rating
Method in brief: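 Wheat seedlings were sprayed to run-off with test suspension (acetone/water plus surfactant), generally 200 ppm (≈500 g/ha), or 40 ppm where marked. Septoria tritici spores were inoculated the next day; plants were held 48 h at 24°C in saturated atmosphere, then 19 days at 20°C before visual disease rating.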

[4] = tested on: Erysiphe graminis f. sp. tritici; experiment: Test J: wheat powdery mildew on wheat seedlings, sprayed the day before inoculation, visual disease rating
Method in brief: as §1

[5] = tested on: Botrytis cinerea; experiment: Test C: tomato Botrytis on tomato seedlings, sprayed the day before inoculation, visual disease rating
Method in brief: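 Compounds were dissolved in acetone (3% of final volume), then suspended in 50/50 acetone/purified water containing 250 ppm polyhydric alcohol ester surfactant. Suspensions were sprayed to run-off on tomato seedlings at 200 ppm, equivalent to 500 g/ha, or at 40 ppm where marked.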

[6] = tested on: Alternaria solani; experiment: Test D: tomato early blight, sprayed the day before inoculation, visual disease rating
Method in brief: as §1

| Compound | Test F disease control rating ([1]; 200 ppm) [%] | Test I disease control rating ([2]; 200 ppm) [%] | Test G disease control rating ([3]; 200 ppm) [%] | Test J disease control rating ([4]; 200 ppm) [%] | Test C disease control rating ([5]; 200 ppm) [%] | Test D disease control rating ([6]; 200 ppm) [%] | Test F disease control rating ([1]; 40 ppm (marked *)) | Test I disease control rating ([2]; 40 ppm (marked *)) | Test G disease control rating ([3]; 40 ppm (marked *)) | Test J disease control rating ([4]; 40 ppm (marked *)) | Test C disease control rating ([5]; 40 ppm (marked *)) | Test D disease control rating ([6]; 40 ppm (marked *)) |
| --- | --- | --- | --- | --- | --- | --- | --- | --- | --- | --- | --- | --- |
| Cc1nc(Cl)c(-c2c(F)cccc2F)n1-c1ccc(F)c(F)c1 [compound 174] | 82 | 100 | 98 | 100 | 98 | 99 | – | – | – | – | – | – |
| Cc1ccc(-n2c(C)nc(Cl)c2-c2c(F)cccc2F)cc1F [compound 175] | 82 | 100 | 98 | 99 | 97 | 97 | – | – | – | – | – | – |
| Fc1ccc(-n2cnc(Cl)c2-c2c(F)ccc(F)c2Cl)cc1 [compound 176] | 0 | 99 | 87 | 99 | 96 | 91 | – | – | – | – | – | – |
| Cc1ccc(-n2cnc(Cl)c2-c2c(F)ccc(F)c2Cl)cc1 [compound 177] | 0 | 99 | 79 | 99 | 88 | 0 | – | – | – | – | – | – |
| Fc1ccc(-n2c(Br)nc(Cl)c2-c2ccc(F)cc2Cl)cc1 [compound 182] | 73 | 97 | 96 | 99 | 99 | 100 | – | – | – | – | – | – |
| Fc1ccc(-n2c(Cl)nc(Cl)c2-c2ccc(F)cc2Cl)cc1 [compound 183] | – | – | – | – | – | – | 0* % | 66* % | 85* % | 48* % | 99* % | 91* % |
| Cc1ccc(-n2c(Br)nc(Cl)c2-c2ccc(F)cc2Cl)cc1 [compound 184] | 0 | 100 | 97 | 100 | 99 | 100 | – | – | – | – | – | – |
| Fc1ccc(-n2c(Br)nc(Cl)c2-c2c(F)cccc2Cl)cc1 [compound 185] | 78 | 100 | 94 | 99 | 99 | 100 | – | – | – | – | – | – |
| Cc1ccc(-n2c(Br)nc(Cl)c2-c2c(F)cccc2Cl)cc1 [compound 186] | 0 | 100 | 97 | 100 | 98 | 88 | – | – | – | – | – | – |
| Cc1nc(Cl)c(-c2ccc(F)cc2Cl)n1-c1ccc(F)cc1 [compound 187] | 94 | 100 | 97 | 100 | 99 | 100 | – | – | – | – | – | – |
| Cc1ccc(-n2c(C)nc(Cl)c2-c2ccc(F)cc2Cl)cc1 [compound 188] | 0 | 100 | 97 | 99 | 98 | 100 | – | – | – | – | – | – |
| Cc1nc(Cl)c(-c2c(F)cccc2Cl)n1-c1ccc(F)cc1 [compound 189] | 51 | 100 | 97 | 99 | 98 | 100 | – | – | – | – | – | – |
| Cc1ccc(-n2c(C)nc(Cl)c2-c2c(F)cccc2Cl)cc1 [compound 190] | 0 | 100 | 93 | 100 | 97 | 100 | – | – | – | – | – | – |
| N#Cc1cc(F)c(-c2c(Cl)ncn2-c2ccc(Cl)cc2)c(F)c1 [compound 193] | 0 | 97 | 98 | 98 | 99 | 100 | – | – | – | – | – | – |
| COc1ccc(Cn2cnc(Cl)c2-c2c(F)cccc2F)cc1 [compound 194] | 73 | 100 | 97 | 96 | 99 | 95 | – | – | – | – | – | – |
| Fc1ccc(-n2c(Br)nc(Cl)c2-c2c(F)ccc(F)c2Cl)cc1 [compound 195] | 64 | 100 | 94 | 94 | 99 | 100 | – | – | – | – | – | – |
| Fc1ccc(-n2c(Cl)nc(Cl)c2-c2c(F)ccc(F)c2Cl)cc1 [compound 196] | 0 | 100 | 92 | 97 | 99 | 100 | – | – | – | – | – | – |
| Cc1ccc(-n2c(Br)nc(Cl)c2-c2c(F)ccc(F)c2Cl)cc1 [compound 197] | 0 | 100 | 93 | 100 | 99 | 99 | – | – | – | – | – | – |
| Cc1ccc(-n2c(Cl)nc(Cl)c2-c2c(F)ccc(F)c2Cl)cc1 [compound 198] | 0 | 100 | 90 | 95 | 98 | 99 | – | – | – | – | – | – |
